In ChEMBL document CHEMBL5291721, “A preclinical secondary pharmacology resource illuminates target-adverse drug reaction associations of marketed drugs” (Nat Commun, 2023):

Assays:
[1] = molecular target: T1, Amine oxidase [flavin-containing] A (Homo sapiens, UniProt P21397); assay type: functional
T1 sequence (P21397 whole entry): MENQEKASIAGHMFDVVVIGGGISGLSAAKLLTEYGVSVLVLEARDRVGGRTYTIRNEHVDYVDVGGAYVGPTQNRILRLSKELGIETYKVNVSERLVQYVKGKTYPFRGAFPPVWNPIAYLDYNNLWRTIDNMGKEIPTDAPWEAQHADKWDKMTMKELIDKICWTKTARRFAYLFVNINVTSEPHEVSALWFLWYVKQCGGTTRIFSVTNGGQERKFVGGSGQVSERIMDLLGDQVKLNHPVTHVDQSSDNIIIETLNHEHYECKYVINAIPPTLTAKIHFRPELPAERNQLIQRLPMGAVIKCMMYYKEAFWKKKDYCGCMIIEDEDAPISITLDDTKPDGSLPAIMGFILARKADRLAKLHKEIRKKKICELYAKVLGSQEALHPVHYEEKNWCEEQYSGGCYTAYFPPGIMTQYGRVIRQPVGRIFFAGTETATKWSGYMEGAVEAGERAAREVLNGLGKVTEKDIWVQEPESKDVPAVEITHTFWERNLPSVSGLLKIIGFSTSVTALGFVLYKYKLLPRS

[2] = molecular target: T2, Sodium-dependent noradrenaline transporter (Homo sapiens, UniProt P23975)
T2 sequence (P23975 whole entry): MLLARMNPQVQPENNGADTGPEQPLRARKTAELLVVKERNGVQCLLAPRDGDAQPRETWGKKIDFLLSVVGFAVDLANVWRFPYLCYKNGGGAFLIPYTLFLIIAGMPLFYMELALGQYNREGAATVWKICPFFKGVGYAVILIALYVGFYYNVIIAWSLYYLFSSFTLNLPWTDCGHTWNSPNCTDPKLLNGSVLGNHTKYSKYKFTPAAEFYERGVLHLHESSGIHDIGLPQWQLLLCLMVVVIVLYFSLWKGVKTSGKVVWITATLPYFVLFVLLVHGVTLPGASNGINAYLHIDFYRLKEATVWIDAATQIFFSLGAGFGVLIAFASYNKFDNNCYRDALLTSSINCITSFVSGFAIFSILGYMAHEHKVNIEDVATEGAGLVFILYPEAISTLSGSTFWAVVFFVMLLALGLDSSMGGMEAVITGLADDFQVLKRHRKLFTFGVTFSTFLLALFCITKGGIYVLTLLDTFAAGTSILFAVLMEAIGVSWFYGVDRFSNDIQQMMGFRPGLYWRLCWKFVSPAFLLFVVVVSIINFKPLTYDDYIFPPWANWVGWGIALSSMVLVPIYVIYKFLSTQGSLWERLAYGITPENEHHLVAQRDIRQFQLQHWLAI

[3] = molecular target: T3, Alpha-1A adrenergic receptor (Homo sapiens, UniProt P35348); assay type: functional, cell-based
T3 sequence (P35348 whole entry): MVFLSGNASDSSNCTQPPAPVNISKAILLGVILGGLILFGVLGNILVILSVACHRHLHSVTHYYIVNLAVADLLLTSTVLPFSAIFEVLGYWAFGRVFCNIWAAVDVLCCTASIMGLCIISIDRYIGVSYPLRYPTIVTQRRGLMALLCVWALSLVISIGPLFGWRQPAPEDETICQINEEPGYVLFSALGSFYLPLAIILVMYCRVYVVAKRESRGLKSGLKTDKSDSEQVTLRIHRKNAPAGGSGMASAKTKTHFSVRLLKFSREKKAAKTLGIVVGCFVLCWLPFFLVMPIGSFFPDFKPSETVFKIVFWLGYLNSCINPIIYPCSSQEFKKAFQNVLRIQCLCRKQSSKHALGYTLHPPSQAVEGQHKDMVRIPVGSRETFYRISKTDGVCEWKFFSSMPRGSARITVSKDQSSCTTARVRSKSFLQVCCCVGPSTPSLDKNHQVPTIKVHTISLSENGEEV

[4] = molecular target: T4, Muscarinic acetylcholine receptor M2 (Homo sapiens, UniProt P08172); assay type: functional, cell-based
T4 sequence (P08172 whole entry): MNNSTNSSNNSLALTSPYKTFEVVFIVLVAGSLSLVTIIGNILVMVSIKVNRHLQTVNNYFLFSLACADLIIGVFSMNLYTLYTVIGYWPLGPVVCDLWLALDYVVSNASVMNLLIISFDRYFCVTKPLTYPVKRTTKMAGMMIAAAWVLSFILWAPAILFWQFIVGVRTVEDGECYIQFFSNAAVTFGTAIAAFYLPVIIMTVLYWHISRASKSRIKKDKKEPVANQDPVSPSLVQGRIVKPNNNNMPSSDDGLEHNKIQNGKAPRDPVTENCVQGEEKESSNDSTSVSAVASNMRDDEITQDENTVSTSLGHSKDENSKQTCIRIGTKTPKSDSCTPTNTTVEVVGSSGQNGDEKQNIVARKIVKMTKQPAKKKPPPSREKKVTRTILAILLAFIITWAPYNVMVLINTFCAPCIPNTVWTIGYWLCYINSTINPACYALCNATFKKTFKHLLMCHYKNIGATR

[5] = molecular target: T2, Sodium-dependent noradrenaline transporter; remark: listed apart in the source
[6] = molecular target: Sodium-dependent dopamine transporter (Homo sapiens, UniProt Q01959)
Chain of Sodium-dependent dopamine transporter (Q01959 whole entry): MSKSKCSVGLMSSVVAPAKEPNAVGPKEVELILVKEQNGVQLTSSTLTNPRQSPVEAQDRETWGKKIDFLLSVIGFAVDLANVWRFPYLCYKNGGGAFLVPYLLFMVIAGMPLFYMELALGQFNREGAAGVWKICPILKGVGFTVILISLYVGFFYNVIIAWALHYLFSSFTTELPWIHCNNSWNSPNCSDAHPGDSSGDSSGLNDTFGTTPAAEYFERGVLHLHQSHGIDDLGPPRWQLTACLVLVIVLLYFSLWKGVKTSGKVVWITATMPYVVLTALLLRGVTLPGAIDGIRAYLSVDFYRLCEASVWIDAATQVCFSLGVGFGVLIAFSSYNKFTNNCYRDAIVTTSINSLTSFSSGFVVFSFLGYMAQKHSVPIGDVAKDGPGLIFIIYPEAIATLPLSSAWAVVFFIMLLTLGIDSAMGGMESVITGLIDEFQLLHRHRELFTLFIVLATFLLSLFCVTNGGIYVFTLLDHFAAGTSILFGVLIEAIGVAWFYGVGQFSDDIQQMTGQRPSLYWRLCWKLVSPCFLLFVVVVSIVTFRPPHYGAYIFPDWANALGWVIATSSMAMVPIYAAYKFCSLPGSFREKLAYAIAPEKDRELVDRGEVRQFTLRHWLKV

[7] = molecular target: T5, Muscarinic acetylcholine receptor M1 (Homo sapiens, UniProt P11229); assay type: functional, cell-based
T5 sequence (P11229 whole entry): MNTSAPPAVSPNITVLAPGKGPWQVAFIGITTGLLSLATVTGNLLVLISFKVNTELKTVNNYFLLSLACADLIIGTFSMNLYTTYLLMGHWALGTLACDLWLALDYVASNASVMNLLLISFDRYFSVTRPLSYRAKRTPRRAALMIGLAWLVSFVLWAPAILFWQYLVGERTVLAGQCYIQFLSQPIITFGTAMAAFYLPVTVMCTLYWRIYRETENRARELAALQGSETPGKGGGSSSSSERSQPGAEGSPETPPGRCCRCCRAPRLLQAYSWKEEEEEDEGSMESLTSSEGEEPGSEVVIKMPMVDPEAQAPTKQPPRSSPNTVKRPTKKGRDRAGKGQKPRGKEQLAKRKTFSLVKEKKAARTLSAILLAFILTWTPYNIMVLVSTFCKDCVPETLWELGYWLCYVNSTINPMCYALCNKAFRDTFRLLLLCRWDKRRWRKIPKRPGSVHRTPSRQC

[8] = molecular target: Voltage-gated inwardly rectifying potassium channel KCNH2 (Homo sapiens, UniProt Q12809); assay type: functional; settings: read-out: AC50
Chain of Voltage-gated inwardly rectifying potassium channel KCNH2 (Q12809 whole entry): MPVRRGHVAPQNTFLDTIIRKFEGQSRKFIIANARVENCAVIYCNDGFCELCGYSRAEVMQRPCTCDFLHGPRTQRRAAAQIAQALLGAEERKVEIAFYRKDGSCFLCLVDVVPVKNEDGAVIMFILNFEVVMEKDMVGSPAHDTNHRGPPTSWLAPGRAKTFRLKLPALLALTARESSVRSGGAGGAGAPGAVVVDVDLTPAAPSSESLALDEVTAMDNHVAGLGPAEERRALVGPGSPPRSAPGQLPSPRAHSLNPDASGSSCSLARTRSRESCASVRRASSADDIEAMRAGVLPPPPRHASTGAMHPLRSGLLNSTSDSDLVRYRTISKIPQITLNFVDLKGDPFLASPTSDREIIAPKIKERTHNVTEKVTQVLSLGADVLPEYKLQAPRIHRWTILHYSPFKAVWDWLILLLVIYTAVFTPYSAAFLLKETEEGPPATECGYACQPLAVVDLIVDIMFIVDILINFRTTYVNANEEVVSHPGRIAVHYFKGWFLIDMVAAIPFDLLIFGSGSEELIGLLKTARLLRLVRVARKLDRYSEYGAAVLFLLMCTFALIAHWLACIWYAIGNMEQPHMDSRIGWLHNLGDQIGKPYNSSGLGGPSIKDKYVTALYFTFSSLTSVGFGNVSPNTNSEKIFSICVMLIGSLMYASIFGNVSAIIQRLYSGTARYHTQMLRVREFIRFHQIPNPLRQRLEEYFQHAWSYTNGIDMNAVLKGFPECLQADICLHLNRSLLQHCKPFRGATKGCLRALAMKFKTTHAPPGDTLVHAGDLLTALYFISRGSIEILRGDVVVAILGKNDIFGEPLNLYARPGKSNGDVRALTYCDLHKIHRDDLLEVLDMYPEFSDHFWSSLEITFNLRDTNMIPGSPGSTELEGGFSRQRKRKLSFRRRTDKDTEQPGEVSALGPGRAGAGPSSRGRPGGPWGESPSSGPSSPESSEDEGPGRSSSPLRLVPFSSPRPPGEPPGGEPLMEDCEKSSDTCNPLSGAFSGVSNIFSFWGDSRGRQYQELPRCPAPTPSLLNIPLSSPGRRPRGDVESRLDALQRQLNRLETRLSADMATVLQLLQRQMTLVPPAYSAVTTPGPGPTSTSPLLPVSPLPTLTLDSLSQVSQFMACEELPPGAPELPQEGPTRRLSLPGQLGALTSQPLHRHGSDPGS

[9] = molecular target: T6, Equilibrative nucleoside transporter 1 (Homo sapiens, UniProt Q99808)
T6 sequence (Q99808 whole entry): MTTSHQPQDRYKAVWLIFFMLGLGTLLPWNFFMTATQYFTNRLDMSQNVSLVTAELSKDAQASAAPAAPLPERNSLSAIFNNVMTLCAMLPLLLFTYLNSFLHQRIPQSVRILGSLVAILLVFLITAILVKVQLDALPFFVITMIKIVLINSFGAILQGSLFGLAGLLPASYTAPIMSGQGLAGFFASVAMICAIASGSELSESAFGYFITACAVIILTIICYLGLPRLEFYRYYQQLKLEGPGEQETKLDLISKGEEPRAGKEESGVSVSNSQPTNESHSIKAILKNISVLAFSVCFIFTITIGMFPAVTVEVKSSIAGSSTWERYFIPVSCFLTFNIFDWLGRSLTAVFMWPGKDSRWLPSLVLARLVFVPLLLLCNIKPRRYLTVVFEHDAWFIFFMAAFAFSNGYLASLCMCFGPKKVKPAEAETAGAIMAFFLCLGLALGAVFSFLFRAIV

[10] = molecular target: 5-hydroxytryptamine receptor 2B (Homo sapiens, UniProt P41595); assay type: functional, cell-based
Chain of 5-hydroxytryptamine receptor 2B (P41595 whole entry): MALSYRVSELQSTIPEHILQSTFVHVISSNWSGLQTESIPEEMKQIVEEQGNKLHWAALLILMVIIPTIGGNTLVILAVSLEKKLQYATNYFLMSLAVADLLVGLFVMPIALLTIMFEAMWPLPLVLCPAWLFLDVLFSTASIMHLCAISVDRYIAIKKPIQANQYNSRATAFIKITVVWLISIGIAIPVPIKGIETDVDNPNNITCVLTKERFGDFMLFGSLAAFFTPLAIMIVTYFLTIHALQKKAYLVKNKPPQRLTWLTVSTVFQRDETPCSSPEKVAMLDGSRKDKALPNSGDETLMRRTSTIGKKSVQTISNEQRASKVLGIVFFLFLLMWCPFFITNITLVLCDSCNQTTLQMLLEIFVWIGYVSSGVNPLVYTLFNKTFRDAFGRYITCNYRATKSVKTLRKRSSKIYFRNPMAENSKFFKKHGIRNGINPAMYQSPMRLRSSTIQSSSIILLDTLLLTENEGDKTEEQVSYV

D(1A) dopamine receptor = D(1A) dopamine receptor (Homo sapiens, UniProt P21728)
Chain of D(1A) dopamine receptor (P21728 whole entry): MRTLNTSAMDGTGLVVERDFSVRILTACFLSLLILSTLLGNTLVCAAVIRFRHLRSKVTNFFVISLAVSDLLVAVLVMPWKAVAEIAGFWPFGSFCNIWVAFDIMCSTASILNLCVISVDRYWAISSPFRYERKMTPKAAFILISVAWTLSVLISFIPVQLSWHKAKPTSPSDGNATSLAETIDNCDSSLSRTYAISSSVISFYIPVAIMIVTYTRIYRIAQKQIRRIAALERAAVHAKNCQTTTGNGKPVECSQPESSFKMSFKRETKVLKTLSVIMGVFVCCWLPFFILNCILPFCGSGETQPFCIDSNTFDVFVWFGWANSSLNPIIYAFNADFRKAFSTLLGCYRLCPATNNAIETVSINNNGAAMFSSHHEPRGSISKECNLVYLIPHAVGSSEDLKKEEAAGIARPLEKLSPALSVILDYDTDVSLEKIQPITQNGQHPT

[11] = molecular target: Gamma-aminobutyric acid receptor subunit alpha-1 (Rattus norvegicus, UniProt P62813)
Chain of Gamma-aminobutyric acid receptor subunit alpha-1 (P62813 whole entry): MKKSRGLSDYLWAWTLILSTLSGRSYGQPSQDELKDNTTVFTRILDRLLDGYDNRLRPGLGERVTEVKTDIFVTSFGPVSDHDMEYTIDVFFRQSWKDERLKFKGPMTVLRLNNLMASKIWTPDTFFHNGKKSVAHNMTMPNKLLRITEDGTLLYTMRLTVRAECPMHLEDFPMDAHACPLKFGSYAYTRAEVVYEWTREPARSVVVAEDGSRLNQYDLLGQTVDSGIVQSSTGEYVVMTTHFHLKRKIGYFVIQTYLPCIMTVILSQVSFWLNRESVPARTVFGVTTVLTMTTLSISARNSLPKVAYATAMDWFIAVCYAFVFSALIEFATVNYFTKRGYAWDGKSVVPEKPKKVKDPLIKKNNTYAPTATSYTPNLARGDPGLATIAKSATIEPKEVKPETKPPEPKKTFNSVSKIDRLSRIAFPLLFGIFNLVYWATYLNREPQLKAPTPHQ

[12] = molecular target: Kappa-type opioid receptor (Homo sapiens, UniProt P41145)
Chain of Kappa-type opioid receptor (P41145 whole entry): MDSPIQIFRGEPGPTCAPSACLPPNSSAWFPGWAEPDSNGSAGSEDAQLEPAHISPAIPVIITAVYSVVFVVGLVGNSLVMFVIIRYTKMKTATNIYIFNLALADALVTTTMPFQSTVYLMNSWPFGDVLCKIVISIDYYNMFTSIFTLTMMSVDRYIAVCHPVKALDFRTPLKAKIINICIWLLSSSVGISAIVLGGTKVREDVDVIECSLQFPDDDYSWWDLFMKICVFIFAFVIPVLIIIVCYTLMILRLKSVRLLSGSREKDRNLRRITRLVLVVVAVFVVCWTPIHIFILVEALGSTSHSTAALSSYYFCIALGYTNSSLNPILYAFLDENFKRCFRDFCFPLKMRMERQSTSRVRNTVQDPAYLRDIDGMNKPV
Also: assay procedure not described here.

SMILES	AC50 [1] [µM]	AC50 [2] [µM]	AC50 [3] [µM]	AC50 [4] [µM]	AC50 [5] [µM]	AC50 [6] [µM]	AC50 [7] [µM]	AC50 [8] [µM]	AC50 [9] [µM]	AC50 [10] [µM]	AC50 (D(1A) dopamine receptor) [µM]	AC50 [11] [µM]	AC50 [12] [µM]
C#Cc1cccc(Nc2ncnc3cc(OCCOC)c(OCCOC)cc23)c1 [ERLOTINIB]	> 30	> 30	> 30	> 30	> 30	> 30	1.64	> 30	29	> 30	> 10	–	–
CC(=O)/N=c1/sc(S(N)(=O)=O)nn1C [METHAZOLAMIDE]	> 10	> 30	–	> 10	> 10	> 30	> 30	> 30	> 10	> 30	> 30	> 10	> 10
CC(=O)Oc1ccccc1C(=O)Nc1ncc([N+](=O)[O-])s1 [NITAZOXANIDE]	7.5	> 30	> 30	1.4	5.1	> 30	> 30	–	1.9	> 30	> 30	> 30	> 30
CNC[C@H](O)c1cccc(O)c1 [PHENYLEPHRINE]	> 10	> 30	–	> 10	> 10	29.4	> 30	> 30	> 30	> 30	18.1	> 30	> 10
CC1(C)O[C@@H]2[C@@H](CO[C@@]3(COS(N)(=O)=O)OC(C)(C)O[C@@H]23)O1 [TOPIRAMATE]	> 10	> 30	–	> 10	> 10	> 30	> 30	> 30	> 30	> 30	> 30	> 10	> 10
